Legend:
[1] = test system: 12-week HFHS fed obese mice; assay: I.C.V. fluorosamine in obese mice: glucose tolerance and hyperinsulinemic-euglycemic clamps; assay type: in vivo, C57BL/6J mice
Method: For hyperinsulinemic-euglycemic clamps, mice were anesthetised under isoflurane and the right jugular vein was catheterised for infusions, as described previously by Dodd et al., 2018. Catheters were attached to an implant button (BMSW25, RWD Life Sciences, Shenzhen, China). Implant buttons were capped allowing for group mousing of mice and catheters were kept patent by flushing daily with 40 μL saline containing 200 units/mL heparin. On the day of the experiment, food was removed at 7:00 A.M. After 3.5 h fasting, a primed (1 min, 1.25 uCi/min) continuous infusion (0.05 uCi/min) of [3-3H]glucose (NET331A001MC, PerkinElmer, MA) was administered to measure whole-body glucose turnover, as described previously by Dodd et al., 2018. […]
Metabolic measurements were undertaken in the Melbourne Mouse Metabolic Phenotyping Platform (The University of Melbourne, Australia). […] The areas under glucose excursion curves were determined and expressed as mmol/l×min. Fasted (12 h fast) plasma insulin or glucose levels were determined using a Rat/Mouse Insulin ELISA (EZRMI-13K, Merck Millipore, CA) or an Accu-Check glucometer respectively. The HOMA-IR was calculated using the equation [(glucose×insulin)/405]. Adiposity was measured using TD-NMR minispec (Bruker Optics Inc., Billerica, MA). […]

[2] = test system: 12-week HFHS fed obese mice; assay: Example 21: 14-day treatment and off-treatment phase, weight rebound, body composition, metabolic rate, food intake; assay type: in vivo, C57BL/6J male mice
Method: To induce diet-induced obesity in adulthood, the mice were ad libitum access to water and high-fat-high-sugar (HFHS) diet (43% of total energy from fat, SF04-001, Speciality Feeds, Australia) starting at eight weeks of age for 12 weeks. Aged-matched chow-fed C57BL/6J male mice were ad libitum access to standard chow diet throughout full duration of the experiment.
Mice adiposity and lean mass were measured via the TD-NMR minispec (Bruker Optics Inc., USA) acquiring EchoMRI-900 Body Composition Analyser (EchoMRI LLC, USA). Interscapular brown adipose tissue, inguinal and epidermal white adipose tissues and the liver were weighed to determine tissue-specific adiposity.
At day 15, treatments were discontinued however all groups continued to receive ad libitum access to HFHS diet to assess the rebound following treatment cessation.

## CC(=O)NC1C(OC(C)=O)OC(COC(C)=O)[C@@H](F)C1OC(C)=O (stereo partly shown) [PZ6005, per-O-acetylated-4-F-N-acetylglucosamine]
[1]; hyperinsulinemic-euglycemic clamps, weight matched obese mice, daily for 3 days I.C.V.
  whole-body insulin sensitivity (GIR): enhancement
[1]; obese mice, I.C.V. for 10 days
  glucose tolerance: improved glucose tolerance
[2]; 14 days after terminating treatments, compared to vehicle and liraglutide alone
  baseline fat mass, without affecting lean mass: significant decrease
[2]; day 14, PZ6005 100 μg/animal I.C.V. every second day, liraglutide 200 μg/kg daily
  mean weight loss from baseline (day 0): 15.08±1.45%
[2]; end of experiment, vs other littermates
  liver mass: lower liver mass
[2]; off-treatment phase
  day of return to baseline body weight: 30.00 ± 1.72 days
[2]; treatment phase, without effects on ambulatory activity
  oxygen consumption and whole-body energy expenditure: elevated

Source: patent US20260191933A1, “PHARMACEUTICAL COMBINATIONS AND USES THEREOF” (The University of Melbourne, priority 2022, published 2026)
